Results: patent publication US20240050513A1, “COMPOSITION FOR PREVENTING, AMELIORATING, OR TREATING DISEASE CAUSED BY PROTEIN NITRATION […] WITH TERMINAL TYROSINE AS EFFECTIVE COMPONENT” (INDUSTRY-ACADEMIC COOPERATION FOUNDATION GYEONGSANG …, priority 2021, published 2024)

Tests used:
[1] = system: kainic acid-treated ICR mice; experiment: Seizure level in kainic acid epileptic seizure model; type: in vivo
Protocol: Four-week-old male ICR mice were fed with normal diet, tyrosine (L-Tyr), or tyrosine-containing peptide (3xYQ, 1xYW, or 3xYW) for one week. […] Kainic acid (KA) was dissolved in saline by heating in a water bath, resulting in a 4.5 mg/ml KA solution. The resulting KA solution was then intraperitoneally injected at a dose of 36 mg/kg, and seizure level and symptoms were recorded for 2 hours.

[2] = system: glutamine synthetase (GS); experiment: Hippocampal glutamine synthetase activity in kainic acid epileptic seizure model; conditions: survived mice after kainic acid
Protocol: Kainic acid (KA) was dissolved in saline by heating in a water bath, resulting in a 4.5 mg/ml KA solution. The resulting KA solution was then intraperitoneally injected at a dose of 36 mg/kg, and seizure level and symptoms were recorded for 2 hours. The brain tissues (prefrontal cortex and hippocampus) of the mice that survived 16 hours or 5 days after the KA injection were collected.
To a 96-well plate, 2 μl of hippocampal homogenate was added, and 50 μl of 50 mM imidazole-HCl buffer (pH 6.8) were added to adjust the volume to 50 μl. Then, 50 μl of GS assay buffer (50 mM imidazole-HCl, pH 6.8, 25 mM L-glutamine, 12.5 mM hydroxylamine, 12.5 mM sodium arsenate, 1 mM MnCl2, and 0.08 mM ADP) were added and the reaction was allowed to occur at 37° C. for approximately 40 minutes. […] To terminate the reaction, 100 μl of stop solution (90 mM FeCl3, 1.8 N HCl, and 1.45% w/v trichloroacetic acid) were added to both the samples and the standard substance, and the absorbance was measured at 560 nm. The GS activity in each sample was determined by comparing it with the standard curve. GS activity was expressed as the generation amount of γ-glutamylhydroxamate, which is produced as a final product, and described in unit of μM/min/μg protein.

[3] = system: chronic immobilization stress C57BL/6 mice; experiment: Cognitive function (ORT/OLT) in chronic immobilization stress model; type: in vivo; conditions: stress group, peptide-supplemented diet vs normal diet
Protocol: To analyze the long-term memory capacity of animals following the peptide diet of the present invention, both the object recognition test (ORT) and object location recognition test (OLT) were conducted (FIG. 1). The tests consisted of three phases: habituation, familiarization, and test. During the habituation phase, the animals were acclimated to the testing apparatus for 10 minutes per day over two days. On the third day at the familiarization phase, the animals were allowed to explore two identical objects for 10 minutes. Subsequently, on the fourth day at the test phase, one of the objects was replaced with a novel object, and the animals were allowed to explore for 10 minutes, with result recorded during the initial 5 minutes was used as test data. The object recognition test (ORT) index was calculated using the following formula.
Discrimination index=(N−F)/(N+F) • N: Time spent for exploring new object • F: Time spent for exploring familiar object
After 24 hours of performing the ORT, the location of the familiar object was changed, and the animals were allowed to explore for 5 minutes. During the total exploration time, the ratio of time spent exploring the object with a changed location was calculated to determine the object location recognition test (OLT) index.
A total of 28 seven-week-old male C57BL/6 mice were divided into two groups: a control group and a stress group. […]

[4] = system: chronic immobilization stress C57BL/6 mice; conditions: stress group, peptide diet vs normal diet
Protocol: A total of 28 male C57BL/6 mice at 7 weeks of age were divided into two groups: a control group (CTL) and a stress group (STR). The stress group was subjected to chronic immobilization stress for 15 days. Specifically, each mouse in the stress group was individually placed in a restrainer for 2 hours daily from […] to induce chronic immobilization stress. The control group (CTL) and stress group (STR) were further classified based on their diets. […] After the completion of the 15-day chronic immobilization stress, the mice were subjected to a sucrose preference test (SPT). Blood samples and prefrontal cortex (PFC) tissues were collected from the mice for subsequent test.
For the analysis of anti-depressive effect, blood and PFC tissues were collected from mice that underwent chronic immobilization stress. The blood collected from mice was centrifuged at 1,000×g for 10 minutes at 4° C. to separate the plasma, and the supernatant was collected and diluted 1/20 with PBS to prepare a sample. The corticosterone concentration in the plasma was then measured using the Corticosterone EIA kit (Cayman) by following the manufacturer's instructions.
In addition, the plasma diluted with PBS at a ⅓ ratio and the PFC tissue lysate (50 μg) were prepared. The ROS/RNS (reactive oxygen species/reactive nitrogen species) level in the plasma and PFC tissues was measured using the ROS/RNS assay kit (Cell Biolabs) according to the manufacturer's instructions.
In addition, the depression was evaluated by measuring the sucrose preference of mice that had undergone 15 days of chronic immobilization stress. The sucrose preference test was conducted over a total of 4 days. Equal amounts of 0.1 M sucrose solution and water were provided in identical bottles of the same size and shape. On the first day, mice were given access to 0.1 M sucrose solution and water for 24 hours. On the second day, the positions of the sucrose solution and water bottles were switched, and mice were given access for 24 hours. On the third day, no sucrose solution or water was provided. On the fourth day, mice were again given access to equal amounts of 0.1 M sucrose solution and water for 3 hours, the positions were then switched, and access was provided for another 3 hours. The amount of sucrose solution and water consumed during the 6-hour period on the fourth day was measured, and the sucrose preference (%) was calculated according to the following formula.
Sucrose preference (%)=Sucrose intake amount/(Water intake amount+Sucrose intake amount)×100

[5] = system: glutamine synthetase (GS); experiment: GS activity and GS tyrosine nitration in PFC, chronic immobilization stress model; type: in vivo, C57BL/6 mice; conditions: stress group
Protocol: Using the prefrontal cortex (PFC) lysate samples from mice obtained after the completion of chronic immobilization stress, GS activity and GS expression level were measured by following the method described above.
Furthermore, the level of tyrosine nitration within GS was measured by using immunoprecipitation (IP)-WB. The immunoprecipitation analysis of tyrosine-nitrated GS was performed using an anti-nitrotyrosine antibody (ab61392, Abcam) and Protein A/G PLUS-Agarose (Santa Cruz) according to the manufacturer's protocol.

`N[C@@H](Cc1ccc(O)cc1)C(=O)O` [L-Tyr, L-tyrosine, reference compound] was tested, and the seizure level ([1]; 5xL-Tyr diet vs normal diet) was “statistically significantly decreased”.
In the case of tyrosine-tryptophan [YW], the “activity of the glutamine synthetase in the hippocampal tissue” value ([2]; 1xYW) is reported as “increased”, the “activity of the glutamine synthetase in the hippocampal tissue” value ([2]; 3xYW) is reported as “increased” and the seizure level ([1]; 1xYW diet one week vs normal diet) is reported as “statistically significantly decreased”. For the same molecule, the cognitive function [3] was “enhanced cognitive function”.
glutamine-tyrosine [QY] was tested, and the “ROS/RNS level in PFC tissue” value [4] was “decreased”, the sucrose preference [4] was “increased” and the “tyrosine nitration level of GS” value ([5]; IP-WB, peptide diet vs normal diet) was “statistically significant decrease”. For the same molecule, the GS activity ([5]; peptide diet (330 mg/kg) vs normal diet) was “statistically significant increase”.
